Experimental findings from ChEMBL document CHEMBL5316350, “Novel Pyrido[2',1':2,3]imidazo[4,5-c]quinoline Derivative Selectively Poisons Leishmania donovani Bisubunit Topoisomerase 1 to Inhibit the Antimony-Resistant Leishmania Infection in Vivo” (J Med Chem, 2023) are described below.

Data set [1] relates to Leishmania donovani. Description: Antileishmanial activity against antimony resistant Leishmania donovani BHU575 promastigotes infected in BALB/c mouse assessed as reduction of macrophage at 10 uM measured after 96 hrs infection by propidium iodide staining analysis relative to control. More on the design: scale not given: the % may be the effect or the level left. In kind it is functional.

In data set [2] the test system is Leishmania donovani. Briefly: Antileishmanial activity against antimony resistant Leishmania donovani BHU575 promastigotes infected in BALB/c mouse assessed as reduction of amastigote burden by measuring parasite count in liver treated after 3 weeks of infection at 5 to 10 mg/kg, ip twice a week for 3 weeks by qPCR based kineto-plastid DNA. It counts as functional, organism-based. The conditions noted are these: dose 5-10 mg/kg. (In qPCR the cycle at which signal appears reflects the starting amount.)

Data set [3] relates to Leishmania donovani. Briefly: Induction of apoptosis in Leishmania donovani Ag83 promastigotes assessed as early apoptotic cells measured at 5 uM after 6 hrs by Annexin V-FITC/PI staining based flow cytometric analysis (reference value: 0.00%). It counts as functional. For orientation: In flow cytometry, cells or beads pass a laser one at a time.
For data set [4], the system named is Leishmania donovani. Briefly: Antileishmanial activity in Leishmania donovani Ag83 promastigotes assessed as persistent Top1cc-induced DNA breakdown by measuring TUNEL positive cells treated for 6 to 12 hrs followed by compound removal measured after 6 to 12 hrs by confocal microscopic analysis relative to camptothecin. It counts as functional, organism-based. The note with it: time 6-12 hrs.

Data set [5] relates to Leishmania donovani. Description: Antileishmanial activity against Leishmania donovani Ag83 promastigotes infected in BALB/c mouse model of visceral leishmaniasis assessed as T-helper type 2 immunological evoke response in splenocytes by measuring decrease in IL-4 level treated after 3 weeks of infection at 5 to 10 mg/kg, ip twice a week for 3 weeks by RT-PCR analysis. The conditions noted are these: dose 5-10 mg/kg. In kind it is functional, organism-based.

Data set [6] relates to Leishmania donovani. Briefly: Induction of apoptosis in antimony resistant Leishmania donovani BHU575 promastigotes at 5 uM measured after 6 to 24 hrs by FITC-Annexin V-based flow cytometric analysis. It counts as functional, organism-based. The note with it: time 6-24 hrs.
In data set [7] the test system is Leishmania donovani. Briefly: Induction of cell cycle arrest in Leishmania donovani Ag83 promastigotes assessed as decrease in accumulation of cells in S phase at 5 uM measured after 12 hrs by PI staining based flow cytometry (reference value: 18.1%). It counts as functional. Set-up: scale not given: the % may be the effect or the level left.
The subject of data set [8] is Leishmania donovani. Description: Induction of cell cycle arrest in Leishmania donovani Ag83 promastigotes assessed as decrease in accumulation of cells in G0/G1 phase at 5 uM measured after 24 hrs by PI staining based flow cytometry (reference value: 65.1%). More on the design: scale not given: the % may be the effect or the level left. In kind it is functional.
For data set [9], the system named is Leishmania donovani. Briefly: Antileishmanial activity against antimony resistant Leishmania donovani BHU575 promastigotes infected in BALB/c mouse assessed as reduction of amastigote burden by measuring parasite count in spleen treated after 3 weeks of infection at 5 to 10 mg/kg, ip twice a week for 3 weeks by qPCR based kineto-plastid DNA. It counts as functional, organism-based. The conditions noted are these: dose 5-10 mg/kg.

For data set [10], the system named is Leishmania donovani. Description: Antileishmanial activity against Leishmania donovani Ag83 promastigotes infected in BALB/c mouse assessed as reduction of amastigote burden in spleen treated after 3 weeks of infection at 5 to 10 mg/kg, ip twice a week for 3 weeks by Giemsa staining stamp-smear based limiting dilution assay. In kind it is functional, organism-based. The note with it: dose 5-10 mg/kg.

For data set [11], the system named is Leishmania donovani. Description: Antileishmanial activity against antimony resistant Leishmania donovani BHU575 promastigotes infected in BALB/c mouse assessed as reduction of amastigote burden in liver treated after 3 weeks of infection at 5 to 10 mg/kg, ip twice a week for 3 weeks by Giemsa staining stamp-smear based limiting dilution assay. The conditions noted are these: dose 5-10 mg/kg. In kind it is functional, organism-based.

Data set [12] relates to Leishmania donovani. Briefly: Antileishmanial activity against antimony resistant Leishmania donovani BHU575 amastigotes infected in BALB/c mouse macrophage assessed as cell viability measured after 48 hrs infection by propidium iodide staining analysis relative to control. It counts as functional, organism-based. The conditions noted are these: BHU575, 48 h.
Data set [13] deals with Leishmania donovani. Description: Antileishmanial activity in Leishmania donovani BHU575 promastigotes assessed as TUNEL positive cells at 5 uM measured after 12 hrs by confocal microscopic analysis relative to control. It counts as functional.
Data set [14] relates to Leishmania donovani. Briefly: Induction of apoptosis in Leishmania donovani Ag83 promastigotes assessed as early apoptotic cells measured at 5 uM after 12 hrs by Annexin V-FITC/PI staining based flow cytometric analysis (reference value: 0.00%). In kind it is functional.
The test system of data set [15] is Leishmania donovani. Briefly: Reversal of Top1cc-induced DNA breakdown in Leishmania donovani Ag83 promastigotes by measuring TUNEL positive cells treated for 6 to 12 hrs followed by compound removal measured after 6 to 12 hrs by confocal microscopic analysis relative to camptothecin. In kind it is functional, organism-based. The conditions noted are these: time 6-12 hrs.

In data set [16] the target is T1, DNA topoisomerase I (Leishmania donovani (strain BPK282A1)) (UniProt E9BRC0).
T1 sequence (whole entry): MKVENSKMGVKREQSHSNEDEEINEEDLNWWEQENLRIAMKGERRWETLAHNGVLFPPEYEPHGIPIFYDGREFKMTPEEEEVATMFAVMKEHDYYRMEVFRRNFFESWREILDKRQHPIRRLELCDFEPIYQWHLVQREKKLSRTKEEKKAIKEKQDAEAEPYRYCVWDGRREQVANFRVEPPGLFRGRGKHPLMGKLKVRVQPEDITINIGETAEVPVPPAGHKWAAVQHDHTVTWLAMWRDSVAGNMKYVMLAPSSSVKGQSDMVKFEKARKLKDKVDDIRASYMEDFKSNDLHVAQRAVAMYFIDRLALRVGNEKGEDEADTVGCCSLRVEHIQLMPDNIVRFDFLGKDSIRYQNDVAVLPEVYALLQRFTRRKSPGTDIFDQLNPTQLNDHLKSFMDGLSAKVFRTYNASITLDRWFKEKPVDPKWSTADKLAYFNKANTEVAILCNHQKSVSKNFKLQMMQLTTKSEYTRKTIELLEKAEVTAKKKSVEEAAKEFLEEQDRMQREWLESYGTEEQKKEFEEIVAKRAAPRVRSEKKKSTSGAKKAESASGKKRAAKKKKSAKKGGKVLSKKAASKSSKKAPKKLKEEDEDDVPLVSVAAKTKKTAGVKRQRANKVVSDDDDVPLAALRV
Description: (§1) Inhibition of recombinant Top1 in Antimony resistant Leishmania donovani BHU575 whole cell extract assessed as relaxation of supercoiled pBluescript SK(+) DNA measured by agarose gel electrophoresis analysis. The note with it: dose 5-50 µM.

The target of a further data set is T2, DNA topoisomerase I (Leishmania donovani (strain BPK282A1), UniProt E9BRC0).
T2 sequence (E9BRC0 whole entry): T1 sequence (whole entry)
Described as §1.

Data set [17] deals with T1, DNA topoisomerase I (Leishmania donovani (strain BPK282A1)). Description: Binding affinity to Leishmania donovani topoisomerase I assessed as DNA intercalation by measuring dislodging of bound fluorophore at 200 uM by EtBr displacement assay.
In data set [18] the test system is Leishmania donovani. Description: Induction of cell cycle arrest in Leishmania donovani Ag83 promastigotes assessed as decrease in accumulation of cells in G0/G1 phase at 5 uM measured after 6 hrs by PI staining based flow cytometry (reference value: 65.1%). It counts as functional. More on the design: scale not given: the % may be the effect or the level left.

A short description of data set [19]: Cytotoxicity against BALB/c mouse macrophage assessed as cell viability measured after 48 hrs infection by propidium iodide staining analysis relative to control. In kind it is toxicity, cell-based. The conditions noted are these: mouse macrophages.
Data set [20] deals with T1, DNA topoisomerase I (Leishmania donovani (strain BPK282A1)). Briefly: Inhibition of Leishmania donovani recombinant Top1 preincubated with compound for 5 mins followed by plasmid DNA addition at 1 to 10 uM measured after 30 mins. The note with it: dose 1-10 µM.
Data set [21] is described as follows: Selectivity index ratio of EC50 for BALB/c mouse macrophage to ratio of EC50 for antileishmanial activity against Leishmania amastigotes. The note with it: mouse macrophages, read-out: Ratio EC50. In kind it is toxicity.
For data set [22], the system named is Leishmania donovani. Briefly: Induction of apoptosis in Leishmania donovani Ag83 promastigotes assessed as late apoptotic cells measured at 5 uM after 6 hrs by Annexin V-FITC/PI staining based flow cytometric analysis (reference value: 0.1%). In kind it is functional.

Molecules are shown by their SMILES. Active and inactive are the calls of the source. No cut-off for these calls is given here.

`COc1cc(-c2nc3ccccc3c3nc4ccccn4c23)cc(OC)c1OC`: the Activity in the data set with Leishmania donovani [1] came out at 90%; with Leishmania donovani [3], 18.7%; in the data set on Leishmania donovani [7], 43.1%; in the data set with Leishmania donovani [8], 31.5%; in the data set with Leishmania donovani [13] it was 60%; with Leishmania donovani [14] it was 11.4%. Further, the results for the Activity in the data set with Leishmania donovani [18] and in the data set with Leishmania donovani [22] were 55.3% and 52.5%, respectively. Moreover, the outcome with Leishmania donovani [2], in the data set on Leishmania donovani [4], with Leishmania donovani [5], with Leishmania donovani [6], in the data set on Leishmania donovani [9] and with Leishmania donovani [10] was Active. Besides, the result in the data set on Leishmania donovani [11] was Active. In the data set on Leishmania donovani [12], the EC50 (in general, the concentration needed to bring the measured effect to its halfway point) came to 7.06 µM. Further, the outcome (in the data set on Leishmania donovani [15]; in [17]) was inactive. Further, the inhibition entry in [16] was “Dose-Dependent Effect”. Besides, the IC50 – broadly, the point on the concentration scale where inhibition reaches its midpoint – on DNA topoisomerase I was found to be 8.75 µM. Besides, the concentration giving a half-maximal response (EC50) at 48 h in data set [19] amounted to 50.2 µM. In addition, the inhibition result in [20] was “inactive”. In addition, the selectivity ratio in data set [21] was 9.25.
